{
  "source": "patent US20110300142A1",
  "about": "“USE OF ZEBURALINE FOR THE TREATMENT OF AUTOIMMUNE DISEASES OR IMMUNE REJECTION OF TRANSPLANTS” (priority 2007, published 2011)",
  "key": {"human lymphocytes": {"test_system": "human lymphocytes", "test": "Proliferation of stimulated human lymphocytes", "assay_type": "cell-based", "protocol": "(§1) FIG. 4A show proliferation of stimulated human lymphocytes after five days in culture in the presence of zebularine at different concentrations, FIG. 4B show restoration of inhibited proliferation of stimulated human lymphocytes after five days in culture in the presence of zebularine at two different concentrations and the IDO inhibitor 1-methyl tryptophane at 100 μM and FIG. 4C show proliferation of stimulated rat spleen lymphocytes after four days in culture in the presence of zebularine at different concentrations.\n(§2) In an experiment the inventors tested the immunogenicity of genetically engineered rat colon cancer cells expressing rat interleukin 12. These cancer cells have repeatedly been used to immunize rats that create a strong immune response towards the rat tumour cells. […] This was congruent with the changes in expression of IDO (FIG. 3). […] There is a very reproducible induction of IDO (about 20-fold) from different human leukocyte cultures with a slight interindividual variation."}, "IDO mRNA expression": {"test_system": "IDO mRNA expression", "test": "qRT-PCR analysis of IDO mRNA expression in rat colon cancer cell lines", "assay_type": "cell-based", "conditions": "for increase of the IDO mRNA level: 100 μM zebularine, normalized to HPRT", "protocol": "The values given are normalized in relation to the HPRT expression values.\n(§3) The treatment with 100 μM of zebularine induced IDO mRNA expression in all three cell lines. A 48-fold increase of the IDO mRNA level in the H1D2WT cell line, a 24-fold increase in the H1D2IL12C46 cell line and a 14-fold increase in the H1D2IL18C2 cell line were detected. […] The inventors know that the 100 μM treatment of tumour cells strongly induces the production of the immunosuppressive molecule IDO but the induction of other T cell immunosuppressive molecules might also be involved, although no evidence has been found for an effect on prostaglandine E2 (PGE2) or nitric oxide (NO) production. It seems that the 100 μM zebularine treatments are not affecting the PGE2 production, the NO production, or the production of tumour antigens."}, "IDO [1]": {"test_system": "IDO", "test": "IDO production in rat spleen cells", "assay_type": "cell-based", "conditions": "similar treatment (100 μM)", "source_text": "as §2"}, "IDO [2]": {"test_system": "IDO", "test": "IDO induction in human buffy coat leukocyte cultures", "assay_type": "cell-based", "conditions": "different human leukocyte cultures, slight interindividual variation", "source_text": "as §2"}, "[3]": {"conditions": "cited from earlier work"}, "[4]": {"conditions": "mouse, cited from earlier work"}, "tumour cells": {"test_system": "tumour cells", "test": "PGE2, NO and tumour antigen production of treated tumour cells", "assay_type": "cell-based, rat", "conditions": "100 μM zebularine treatment", "protocol": "as §3"}, "bladder carcinoma cells": {"test_system": "bladder carcinoma cells", "conditions": "zebularine 500-1000 mg/kg; cited from earlier work"}, "rat colon cancer cells": {"test_system": "rat colon cancer cells", "test": "Immunization of rats with zebularine-pretreated tumour cells; proliferative response of spleen cells / immunogenicity", "assay_type": "in vivo", "protocol": "as §3, §2"}, "p16 gene expression": {"test_system": "p16 gene expression", "conditions": "zebularine 100-500 μM; cited from earlier work"}, "[5]": {"conditions": "compared to azacytidine or 2′-deoxy-azacytidine; cited from earlier work"}, "rat spleen lymphocytes": {"test_system": "rat spleen lymphocytes", "test": "Proliferation of stimulated rat spleen lymphocytes", "assay_type": "cell-based", "conditions": "rat spleen cells", "protocol": "as §1, §2"}},
  "data": [
    {"compound": "Cn1cc(C[C@H](N)C(=O)O)c2ccccc21", "note": "[1-methyl tryptophan, reference compound]", "values": [
      {"measurement": "effect on zebularine-induced suppression of proliferation", "setting": "human lymphocytes; IDO inhibitor added to zebularine-treated stimulated human lymphocytes, 100 μM, five days", "result": "can be blocked"}
    ]},
    {"compound": "O=c1ncccn1[C@@H]1O[C@H](CO)[C@@H](O)[C@H]1O", "note": "[zebularine, 1-(β-D-Ribofuranosyl)-1,2-dihydropyrimidin-2-one]", "values": [
      {"measurement": "production of IDO", "setting": "IDO mRNA expression; 100 μM", "result": "strongly enhance"},
      {"measurement": "increase of the IDO mRNA level", "setting": "IDO mRNA expression; H1D2IL12C46 cell line", "result": 24, "unit": "fold"},
      {"measurement": "increase of the IDO mRNA level", "setting": "IDO mRNA expression; H1D2IL18C2 cell line", "result": 14, "unit": "fold"},
      {"measurement": "increase of the IDO mRNA level", "setting": "IDO mRNA expression; H1D2WT cell line", "result": 48, "unit": "fold"},
      {"measurement": "IDO production", "setting": "IDO [1]", "result": "enhanced IDO production"},
      {"measurement": "induction of IDO", "setting": "IDO [2]", "result": "about 20 fold"},
      {"measurement": "solubility in water", "setting": "[3]", "result": "soluble in water"},
      {"measurement": "fraction of dose absorbed in tissues", "setting": "[4]; i.v., 100 mg/kg, plasma, red blood cells, liver, kidney, spleen, heart, lung, muscle, Duodenum, Jejunum, Ileum, Colon and Carcass", "result": "about 60%"},
      {"measurement": "bioavailability after i.v. injection", "setting": "[4]; i.v.", "result": "good"},
      {"measurement": "bioavailability for Fat, Brain, Testes, Cecum and Stomach", "setting": "[4]; i.v.", "result": "less"},
      {"measurement": "turnover in tissues", "setting": "[4]; many tissues", "result": "quite fast"},
      {"measurement": "metabolites", "setting": "[4]", "result": "uridine, uracil and dihydrouracil"},
      {"measurement": "polyclonal lymphocyte proliferation", "setting": "human lymphocytes; human buffy coat leukocytes", "result": "strong suppression"},
      {"measurement": "NO production", "setting": "tumour cells", "result": "not affecting"},
      {"measurement": "PGE2 production", "setting": "tumour cells", "result": "not affecting"},
      {"measurement": "production of tumour antigens", "setting": "tumour cells", "result": "not affecting"},
      {"measurement": "in vivo p16 gene expression", "setting": "bladder carcinoma cells", "result": "induced"},
      {"measurement": "tumour volume", "setting": "bladder carcinoma cells", "result": "reduced"},
      {"measurement": "immunogenicity of rat colon cancer cells expressing rat interleukin 12 when used for immunization", "setting": "rat colon cancer cells; cells pre-treated with 100 μM zebularine", "result": "less immunogenic"},
      {"measurement": "proliferative response of non-adherent spleen cells stimulated with tumor cells in vitro", "setting": "rat colon cancer cells; rats immunized with tumour cells pretreated with 100 μM zebularine", "result": "very weak proliferative response"},
      {"measurement": "p16 gene expression", "setting": "p16 gene expression", "result": "induces p16 gene expression"},
      {"measurement": "stability", "setting": "[5]", "result": "stable"},
      {"measurement": "toxicity", "setting": "[5]", "result": "not very toxic"},
      {"measurement": "polyclonal lymphocyte proliferation", "setting": "rat spleen lymphocytes", "result": "strong suppression"}
    ]}
  ]
}
